In US20260242371A1, “LIPID PRODRUGS OF BROM[…] USES THEREOF” (priority 2023, published 2026):

Assays:
5-HT2A receptor = 5-HT2A receptor (Homo sapiens, UniProt P28223); settings: Lewis, V. et al, Cell Reports 2023; cited from earlier work
[1] = Pharmacokinetics of 2-bromo-LSD prodrugs in non-human primates; settings: cynomolgus monkey, plasma; for AUC(0-t) / Cmax: iv
[2] = Pharmacokinetics of 2-bromo-LSD prodrugs in rats; settings: male, Sprague-Dawley, rat, plasma, iv
[3] = Metabolism identification (MetID) assay in human hepatocytes; settings: 10 μM bromolysergide, 3 hours, 37 degrees Celsius
[4] = Metabolism identification (MetID) assay in human liver microsomes S9 fraction; settings: 10 μM bromolysergide, human liver microsomes S9 1 mg/mL, NADPH, one hour, 37° C.
[5] = patients given up to 22 mg; Schneckloth, R., et al., Circulation 1957; cited from earlier work
[6] = Metabolism identification (MetID) assay in rat hepatocytes; settings: 10 μM bromolysergide, 3 hours, 37 degrees Celsius
5-HT2B receptor = 5-HT2B receptor (Homo sapiens, UniProt P41595); settings: cited from earlier work
5-HT2B receptor, sequence (P41595 whole entry): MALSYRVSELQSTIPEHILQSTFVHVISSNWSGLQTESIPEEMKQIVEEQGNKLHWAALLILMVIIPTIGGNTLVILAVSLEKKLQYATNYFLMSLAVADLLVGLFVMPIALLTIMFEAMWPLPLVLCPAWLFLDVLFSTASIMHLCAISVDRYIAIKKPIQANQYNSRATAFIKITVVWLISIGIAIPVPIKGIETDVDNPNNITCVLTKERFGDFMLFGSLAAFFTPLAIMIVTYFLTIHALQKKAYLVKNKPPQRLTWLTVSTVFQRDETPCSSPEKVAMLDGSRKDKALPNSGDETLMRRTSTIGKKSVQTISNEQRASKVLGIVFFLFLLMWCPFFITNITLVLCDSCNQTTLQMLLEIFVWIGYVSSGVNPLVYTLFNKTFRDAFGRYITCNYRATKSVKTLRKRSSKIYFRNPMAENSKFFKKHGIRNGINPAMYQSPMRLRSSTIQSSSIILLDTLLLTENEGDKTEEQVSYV

5-HT2A receptor, sequence (P28223 whole entry): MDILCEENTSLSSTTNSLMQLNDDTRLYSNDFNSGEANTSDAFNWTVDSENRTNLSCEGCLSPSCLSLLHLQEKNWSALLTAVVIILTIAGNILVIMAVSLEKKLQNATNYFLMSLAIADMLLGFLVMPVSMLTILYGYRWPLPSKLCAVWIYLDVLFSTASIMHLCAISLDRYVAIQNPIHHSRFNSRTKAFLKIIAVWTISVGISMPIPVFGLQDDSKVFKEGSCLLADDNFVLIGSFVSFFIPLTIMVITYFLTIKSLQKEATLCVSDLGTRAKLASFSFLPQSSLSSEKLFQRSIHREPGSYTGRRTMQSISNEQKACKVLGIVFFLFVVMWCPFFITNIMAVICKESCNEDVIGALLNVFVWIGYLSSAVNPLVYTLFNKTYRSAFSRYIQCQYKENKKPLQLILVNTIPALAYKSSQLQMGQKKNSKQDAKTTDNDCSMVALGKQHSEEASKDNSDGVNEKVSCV

SMILES	% of Total Human [3]	% of Total Human_LM [4]	% of Total Rat [6]	other results
CCN(CC)C(=O)[C@@H]1C=C2c3cccc4[nH]c(Br)c(c34)C[C@H]2N(C)C1 [Compound 2BL, 2-bromo-lysergic acid diethylamide]	41.3%	30.0%	18.5%	activity at 5-HT2A receptor (5-HT2A receptor): partial agonism; Tmax ([1]; oral): ~2 h; AUC(0-t) ([1]; female): 340 ± 38 ng·h/mL; Cmax ([1]; female): 340 ± 58 ng/mL; AUC(0-t) ([1]; male): 300 ± 40 ng·h/mL; Cmax ([1]; male): 280 ± 8.8 ng/mL; AUC(0-t) [2]: 0.93 ± 0.1 µM·h; Cmax [2]: 890 ± 60 nM; hallucinations in patients [5]: no hallucinations reported; activity at 5-HT2B receptor (5-HT2B receptor): antagonist
CCN(CC)C(=O)[C@@H]1C=C2c3cccc4[nH]c(O)c(c34)C[C@H]2N(C)C1 [Compound M339]	4.8%	4.4%	3.9%	–
CN1C[C@H](C(N)=O)C=C2c3cccc4[nH]c(Br)c(c34)C[C@H]21 [Compound M345]	0.4%	0.2%	0.1%	–
CN1C[C@H](C(=O)O)C=C2c3cccc4[nH]c(Br)c(c34)C[C@H]21 [Compound M346]	14.3%	0.9%	0.5%	–
CCNC(=O)[C@@H]1C=C2c3cccc4[nH]c(Br)c(c34)C[C@H]2NC1 [Compound M359]	1.0%	1.2%	0.7%	–
CCNC(=O)[C@@H]1C=C2c3cccc4[nH]c(Br)c(c34)C[C@H]2N(C)C1 [Compound M373]	10.3%	19.6%	7.7%	–
CCN(CC)C(=O)[C@@H]1C=C2c3cccc4[nH]c(Br)c(c34)C[C@H]2NC1 [Compound M387]	3.0%	3.0%	2.5%	–
